This experiment concerns YAP/TAZ-TEAD transcription. In words: Reporter gene assay for measuring the inhibition of YAP/TAZ-TEAD transcription (TEAD-responsive element luciferase reporter in Hek293T cells). It counts as cell-based. The note with it: Homo sapiens, HEK-293T, 24 hours incubation. The method, then:
Hek293T cells are cultured in DMEM supplemented with 10% fetal bovine serum, Sodium pyruvate, Sodium bicarbonate, L-glutamine. The cells are harvested and transiently transfected with TEAD-responsive element luciferase reporter. Transfected cells are plated in 384-wells plate containing pre-diluted compounds. After 24 hours incubation at 37° C./5% CO2, assay plates were cooled down to RT and levelled to an equal volume per well, prior to the addition of 25 uL luciferase substrate SteadyLite (Perkin Elmer)/well. The plate was shaken for 10 min at 600 rpm, centrifuged for 1 min at 500 rpm and measured with an Envision reader (PerkinElmer). The amount of relative light units produced by the TEAD reporter is used to calculated percent of inhibition.
The percent of reporter inhibition was calculated in the presence of a positive control inhibitor (100% inhibition) versus a condition with the presence of the vehicle basal activity of the reporter (0% inhibition). The ability of a test compound to inhibit this activity was determined as: Percentage inhibition=[1−((RLU determined in the presence of vehicle−RLU determined for sample with test compound present) divided by (RLU determined in the presence of vehicle−RLU determined for sample with positive control inhibitor))]*100
The activities of the example compounds tested are depicted in the table below. The activity ranges A, B and C refer to EC50 values in the reporter gene assay as described as follows: “A”: EC50<1 μM; “B”: 1 μM s EC50≤20 μM and “C”: EC50>20 μM, NT=not tested.

The values that follow come from patent US12552772B2, “2-pyrazole anilines and related analogs for inhibiting YAP/TAZ-TEAD” (KATHOLIEKE UNIVERSITEIT LEUVEN, priority 2021, dated 2026).

Molecules are shown by their SMILES.

`C=CC(=O)NCc1cnc(-c2ccc(F)cc2)cc1-c1cnn(C(F)F)c1` [Cpd. No. 224, N-((4-(1-(difluoromethyl)-1H-pyrazol-4-yl)-6-(4-fluorophenyl)pyridin-3-yl)methyl)acrylamide] had an EC50 of 1000 to 20000 nM.
In turn, `C=CC(=O)NCc1cnc(-c2ccc(F)cc2)cc1-c1cn(C(F)F)nn1` [Cpd. No. 229, N-((4-(1-(difluoromethyl)-1H-1,2,3-triazol-4-yl)-6-(4-fluorophenyl)pyridin-3-yl)methyl)acrylamide] had a concentration giving a half-maximal response (EC50) of less than 1000 nM.
Under `C=CC(=O)NCc1c(-c2ccn(C)n2)cc(-c2ccc(F)cc2)[nH]c1=O` [Cpd. No. 233, N-((6-(4-fluorophenyl)-4-(1-methyl-1H-pyrazol-3-yl)-2-oxo-1,2-dihydropyridin-3-yl)methyl)acrylamide] stands more than 20000 nM; under `C=CC(=O)NCc1[nH]c(=O)c(-c2ccc(F)cc2)cc1-c1ccn(C)n1` [Cpd. No. 234, N-((5-(4-fluorophenyl)-3-(1-methyl-1H-pyrazol-3-yl)-6-oxo-1,6-dihydropyridin-2-yl)methyl)acrylamide], less than 1000 nM.
`C=CC(=O)NCc1cc(=O)n(-c2ccc(F)cc2)cc1-c1ccn(C)n1` [Cpd. No. 235, N-((1-(4-fluorophenyl)-5-(1-methyl-1H-pyrazol-3-yl)-2-oxo-1,2-dihydropyridin-4-yl)methyl)acrylamide] yielded an EC50 of more than 20000 nM.
Under `C=CC(=O)NCc1cnc(-c2ccc(F)cc2)cc1-n1cccn1` [Cpd. No. 239, N-((6-(4-fluorophenyl)-4-(1H-pyrazol-1-yl)pyridin-3-yl)methyl)acrylamide] stands less than 1000 nM.
Under `C=CC(=O)NC1(c2ccc(-c3ccc(F)cc3)cc2-c2ccn(C)n2)CC1` [Cpd. No. 256, N-(1-(4′-fluoro-3-(1-methyl-1H-pyrazol-3-yl)-[1,1′-biphenyl]-4-yl)cyclopropyl)acrylamide] stands less than 1000 nM; under `C=CC(=O)NC1CC1c1ccc(-c2ccccc2)cc1-c1ccn(C)n1` (stereo not shown) [Cpd. No. 257, N-(2-(3-(1-methyl-1H-pyrazol-3-yl)-[1,1′-biphenyl]-4-yl)cyclopropyl)acrylamide], less than 1000 nM.
Under `C=CC(=O)N1CCC(c2cc(-c3ccc(F)cc3)nc(-c3ccn(C(F)F)n3)c2)C1` (stereo not shown) [Cpd. No. 264, 1-(3-(2-(1-(difluoromethyl)-1H-pyrazol-3-yl)-6-(4-fluorophenyl)pyridin-4-yl)pyrrolidin-1-yl)prop-2-en-1-one] stands less than 1000 nM; under `C=CC(=O)N1CCC(c2cc(-c3ccc(F)cc3)cc(-c3ccn(C(F)F)n3)n2)C1` (stereo not shown) [Cpd. No. 265, 1-(3-(6-(1-(difluoromethyl)-1H-pyrazol-3-yl)-4-(4-fluorophenyl)pyridin-2-yl)pyrrolidin-1-yl)prop-2-en-1-one], less than 1000 nM; under `O=C(O)c1cncc(-c2cccc(-c3ccn(Cc4ccccc4)n3)c2)c1` [compound 001, 5-(3-(1-benzyl-1H-pyrazol-3-yl)phenyl)nicotinic acid], more than 20000 nM.
`NC(=O)c1cncc(-c2cccc(-c3ccn(Cc4ccccc4)n3)c2)c1` [compound 002, 5-(3-(1-benzyl-1H-pyrazol-3-yl)phenyl)nicotinamide]: the EC50 was less than 1000 nM.
Turning to `Nc1cncc(-c2cccc(-c3ccn(Cc4ccccc4)n3)c2)c1` [compound 003, 5-(3-(1-benzyl-1H-pyrazol-3-yl)phenyl)pyridin-3-amine], the EC50 is 1000 to 20000 nM.
In turn, `N#Cc1cncc(-c2cccc(-c3ccn(Cc4ccccc4)n3)c2)c1` [compound 005, 5-(3-(1-benzyl-1H-pyrazol-3-yl)phenyl)nicotinonitrile] gave an EC50 of 1000 to 20000 nM.
As to `CCC(=O)Nc1cncc(-c2cccc(-c3ccn(Cc4ccccc4)n3)c2)c1` [compound 006, N-(5-(3-(1-benzyl-1H-pyrazol-3-yl)phenyl)pyridin-3-yl)propionamide], the EC50 lay in the range of 1000 to 20000 nM.
Under `CC(=O)Nc1cncc(-c2cccc(-c3ccn(Cc4ccccc4)n3)c2)c1` [compound 007, N-(5-(3-(1-benzyl-1H-pyrazol-3-yl)phenyl)pyridin-3-yl)acetamide] stands less than 1000 nM.
Molecule `C=CC(=O)Nc1ccccc1-c1cccc(-c2ccn(Cc3ccccc3)n2)c1` [compound 008, N-(3′-(1-benzyl-1H-pyrazol-3-yl)-[1,1′-biphenyl]-2-yl)acrylamide] returned an EC50 of 1000 to 20000 nM.
For `C=CC(=O)Nc1cc(-c2cccc(-c3ccn(Cc4ccccc4)n3)c2)ccn1` [compound 009, N-(4-(3-(1-benzyl-1H-pyrazol-3-yl)phenyl)pyridin-2-yl)acrylamide] the value was less than 1000 nM; for `C=CC(=O)Nc1ccc(-c2cccc(-c3ccn(Cc4ccccc4)n3)c2)cn1` [compound 010, N-(5-(3-(1-benzyl-1H-pyrazol-3-yl)phenyl)pyridin-2-yl)acrylamide], 1000 to 20000 nM.
As for `C=CC(=O)Nc1cncc(-c2cccc(-c3ccn(Cc4ccc(C(F)(F)F)cc4)n3)c2)c1` [compound 011, N-(5-(3-(1-(4-(trifluoromethyl)benzyl)-1H-pyrazol-3-yl)phenyl)pyridin-3-yl)acrylamide], the EC50 is 1000 to 20000 nM.
For `C=CC(=O)Nc1cncc(-c2cccc(-c3ccn(Cc4cccc(C(F)(F)F)c4)n3)c2)c1` [compound 012, N-(5-(3-(1-(3-(trifluoromethyl)benzyl)-1H-pyrazol-3-yl)phenyl)pyridin-3-yl)acrylamide] the value was 1000 to 20000 nM; for `C=CC(=O)Nc1cncc(-c2cccc(-c3ccn(C)n3)c2)c1` [compound 013, N-(5-(3-(1-methyl-1H-pyrazol-3-yl)phenyl)pyridin-3-yl)acrylamide], 1000 to 20000 nM; for `c1ccc(-c2cccc(-c3ccn(Cc4cccnc4)n3)c2)cc1` [compound 014, 3-((3-([1,1′-biphenyl]-3-yl)-1H-pyrazol-1-yl)methyl)pyridine], 1000 to 20000 nM.
For `c1ccc(-c2cccc(-c3ccnn3Cc3cccnc3)c2)cc1` [compound 015, 3-((5-([1,1′-biphenyl]-3-yl)-1H-pyrazol-1-yl)methyl)pyridine], the EC50 is more than 20000 nM.
For `c1ccc(Cn2ccc(-c3cccc(-c4cncnc4)c3)n2)cc1` [compound 016, 5-(3-(1-benzyl-1H-pyrazol-3-yl)phenyl)pyrimidine] the value was 1000 to 20000 nM; for `c1ccc(Cn2nccc2-c2cccc(-c3cncnc3)c2)cc1` [compound 017, 5-(3-(1-benzyl-1H-pyrazol-5-yl)phenyl)pyrimidine], 1000 to 20000 nM.
With `Fc1cccc(Cn2ccc(-c3cccc(-c4ccccc4)c3)n2)c1` [compound 018, 3-([1,1′-biphenyl]-3-yl)-1-(3-fluorobenzyl)-1H-pyrazole], the EC50 fell in the range of 1000 to 20000 nM.
Under `COc1cccc(Cn2ccc(-c3cccc(-c4ccccc4)c3)n2)c1` [compound 019, 3-([1,1′-biphenyl]-3-yl)-1-(3-methoxybenzyl)-1H-pyrazole] stands 1000 to 20000 nM; under `N#Cc1cccc(Cn2ccc(-c3cccc(-c4ccccc4)c3)n2)c1` [compound 020, 3-((3-([1,1′-biphenyl]-3-yl)-1H-pyrazol-1-yl)methyl)benzonitrile], 1000 to 20000 nM; under `c1ccc(-c2cccc(-c3ccn(Cc4ccccn4)n3)c2)cc1` [compound 021, 2-((3-([1,1′-biphenyl]-3-yl)-1H-pyrazol-1-yl)methyl)pyridine], 1000 to 20000 nM.
Under `c1ccc(-c2cccc(-c3ccn(Cc4ccncc4)n3)c2)cc1` [compound 022, 4-((3-([1,1′-biphenyl]-3-yl)-1H-pyrazol-1-yl)methyl)pyridine] stands 1000 to 20000 nM.

What is called EC50 is the concentration needed to bring the measured effect to its halfway point.
